Peptide text beside a SMILES is read from it.
System: SD rats
Test: Hematology and coagulation analysis in acute toxicity study
Format: in vivo, Sprague Dawley rats
Conditions: day 15, mean ± SD
Protocol: Forty SD rats (20 males and 20 females) were randomly divided into 4 groups (Figure 1). All rats were given F3 once on the day of the experiment.
Twelve SD rats (6 males, 6 females) were given a daily subcutaneous injection of F3 at a dose of 10.0 mg/kg for consecutive 14 days. The first day of administration was recorded as day 1.
For 14 days, the body weight was measured before F3 administration on the first day of the experiment and once a week thereafter, with additional measurements on the day before and on the day of the planned autopsy. Food intake was recorded once a week. The rats were anesthetized by inhalation of 70% CO2/30% O2 before dissection, and blood samples were taken for hematology and biochemical analysis. The collected tissue was weighed and preserved for pathological examination.
Blood smears were used to investigate the morphology of basophils (ABBASO), eosinophils (ABEOS), neutrophils (ABNEUT), monocytes (ABMONO), and lymphocytes (ABLYMP) in the peripheral blood. When white blood cell classification and reticulocyte count cannot be calculated directly by ADVIA 2120i, they were manually counted and calculated following the procedure published previously. The number of platelets was determined manually when they could not be counted mechanically because of coagulation. Wright-Giemsa staining was used to prepare blood smears for cell morphology.
Liver and renal functions were measured with special attention to alanine aminotransferase (ALT), aspartate aminotransferase (AST), alkaline phosphatase (ALP), serum creatinine, total bilirubin, and urea levels. In addition, the levels of glucose, calcium, total protein, and albumin in serum samples were measured. The blood biochemical test, hematology test, and coagulation function test were detected by Hitachi 7180 automatic biochemical analyzer, Siemens ADVIA 2120i hematology analyzer, and Stargo Emo Express Hemagglutination analyzer, respectively.

[1] = female SD rats, s.c. 10.0 mg/kg daily x14 d, n=6
[2] = female SD rats, single s.c. 1.0 mg/kg, n=5
[3] = female SD rats, single s.c. 10.0 mg/kg, n=5
[4] = female SD rats, single s.c. 100.0 mg/kg, n=5
[5] = male SD rats, s.c. 10.0 mg/kg daily x14 d, n=6
[6] = male SD rats, single s.c. 1.0 mg/kg, n=5
[7] = male SD rats, single s.c. 10.0 mg/kg, n=5
[8] = male SD rats, single s.c. 100.0 mg/kg, n=5

## CC[C@H](C)[C@H](NC(=O)[C@H](CO)NC(=O)CNC(=O)[C@H](CC(C)C)NC(=O)[C@@H](NC(=O)CNC(=O)[C@H](Cc1ccccc1)NC(=O)[C@H](CC(C)C)NC(=O)CN)C(C)C)C(=O)N[C@@H](C)C(=O)N[C@@H](CCCCN)C(=O)N[C@@H](Cc1c[nH]cn1)C(=O)N[C@H](C(=O)N[C@@H](CC(C)C)C(=O)N1CCC[C@H]1C(=O)N[C@@H](Cc1c[nH]cn1)C(=O)N[C@H](C(=O)N[C@H](C(=O)N1CCC[C@H]1C(=O)N[C@H](C(=O)N[C@H](C(=O)N[C@@H](C)C(=O)N[C@@H](CCC(=O)O)C(=O)N[C@@H](CCCCN)C(=O)N[C@@H](CC(C)C)C(N)=O)[C@@H](C)CC)C(C)C)C(C)C)C(C)C)C(C)C [F3, Caerin 1.9] (H-GLFGVLGSIAKHVLPHVVPVIAEKL-NH2)
[1]
  ABBASO (basophils): 0.01 ± 0 10^9/L
  ABEOS (eosinophils): 0.16 ± 0.07 10^9/L
  ABLYMP (lymphocytes): 7.64 ± 1.61 10^9/L
  ABMONO (monocytes): 0.23 ± 0.08 10^9/L
  ABNEUT (neutrophils): 2.53 ± 0.45 10^9/L
  ABRETIC: 273.87 ± 31.75 10^9/L
  APTT: 14.9 ± 0.28 s
  HCT: 38.2 ± 1.34%
  HGB: 11.62 ± 0.50 g/dL
  MCH: 19.25 ± 0.69 pg
  MCHC: 30.4 ± 0.46 g/dL
  MCV: 63.38 ± 2.38 fL
  MPV: 8.58 ± 0.42 fL
  PLT: 1357.67 ± 169.65 10^9/L
  PT: 20.45 ± 1.16 s
  RBC: 6.04 ± 0.37 10^12/L
  WBC: 10.67 ± 1.900 10^9/L
[2]
  ABBASO (basophils): 0.006 ± 0.005 10^9/L
  ABEOS (eosinophils): 0.072 ± 0.034 10^9/L
  ABLYMP (lymphocytes): 5.956 ± 2.336 10^9/L
  ABMONO (monocytes): 0.228 ± 0.234 10^9/L
  ABNEUT (neutrophils): 1.71 ± 1.516 10^9/L
  ABRETIC: 226.5 ± 33.41 10^9/L
  APTT: 16.94 ± 1.15 s
  HCT: 45.34 ± 3.13%
  HGB: 14.44 ± 1.06 g/dL
  MCH: 19.06 ± 0.27 pg
  MCHC: 31.82 ± 0.47 g/dL
  MCV: 59.86 ± 0.56 fL
  MPV: 9.02 ± 0.30 fL
  PLT: 1081.6 ± 83.2 10^9/L
  PT: 20.06 ± 0.75 s
  RBC: 7.584 ± 0.568 10^12/L
  WBC: 8.022 ± 3.840 10^9/L
[3]
  ABBASO (basophils): 0.01 ± 0.007 10^9/L
  ABEOS (eosinophils): 0.072 ± 0.032 10^9/L
  ABLYMP (lymphocytes): 6.526 ± 1.92 10^9/L
  ABMONO (monocytes): 0.136 ± 0.034 10^9/L
  ABNEUT (neutrophils): 1.128 ± 0.308 10^9/L
  ABRETIC: 192.02 ± 21.07 10^9/L
  APTT: 18.24 ± 1.36 s
  HCT: 46.98 ± 1.22%
  HGB: 14.9 ± 0.29 g/dL
  MCH: 18.78 ± 0.75 pg
  MCHC: 31.76 ± 0.46 g/dL
  MCV: 59.1 ± 1.71 fL
  MPV: 9.28 ± 0.20 fL
  PLT: 1004.4 ± 93.7 10^9/L
  PT: 19.44 ± 0.70 s
  RBC: 7.954 ± 0.424 10^12/L
  WBC: 7.922 ± 1.865 10^9/L
[4]
  ABBASO (basophils): 0.008 ± 0.004 10^9/L
  ABEOS (eosinophils): 0.06 ± 0.031 10^9/L
  ABLYMP (lymphocytes): 5.886 ± 1.807 10^9/L
  ABMONO (monocytes): 0.142 ± 0.094 10^9/L
  ABNEUT (neutrophils): 1.148 ± 0.434 10^9/L
  ABRETIC: 215.84 ± 21.41 10^9/L
  APTT: 17.02 ± 1.47 s
  HCT: 47.16 ± 1.49%
  HGB: 14.96 ± 0.47 g/dL
  MCH: 18.64 ± 1 pg
  MCV: 58.8 ± 2.76 fL
  MPV: 9 ± 0.19 fL
  PLT: 987 ± 86.1 10^9/L
  PT: 19.72 ± 0.50 s
  RBC: 8.042 ± 0.561 10^12/L
  WBC: 7.28 ± 2.163 10^9/L
[5]
  ABBASO (basophils): 0.01 ± 0.01 10^9/L
  ABEOS (eosinophils): 0.17 ± 0.06 10^9/L
  ABLYMP (lymphocytes): 10.1 ± 2.26 10^9/L
  ABMONO (monocytes): 0.34 ± 0.09 10^9/L
  ABNEUT (neutrophils): 2.43 ± 1.39 10^9/L
  ABRETIC: 338.6 ± 20.2 10^9/L
  APTT: 16.2 ± 1.82 s
  HCT: 42.18 ± 0.92%
  HGB: 12.68 ± 0.34 g/dL
  MCH: 18.28 ± 0.56 pg
  MCHC: 30.08 ± 0.52 g/dL
  MCV: 60.78 ± 1.44 fL
  MPV: 9.05 ± 0.36 fL
  PLT: 1421.5 ± 225.3 10^9/L
  PT: 20.87 ± 1.2 s
  RBC: 6.94 ± 0.18 10^12/L
  WBC: 13.19 ± 3.49 10^9/L
[6]
  ABBASO (basophils): 0.005 ± 0.006 10^9/L
  ABEOS (eosinophils): 0.088 ± 0.013 10^9/L
  ABLYMP (lymphocytes): 7.695 ± 0.12 10^9/L
  ABMONO (monocytes): 0.283 ± 0.124 10^9/L
  ABNEUT (neutrophils): 1.185 ± 0.375 10^9/L
  ABRETIC: 250.78 ± 19.32 10^9/L
  APTT: 17.44 ± 0.85 s
  HCT: 48.4 ± 1.29%
  HGB: 15.1 ± 0.41 g/dL
  MCH: 18.63 ± 1.63 pg
  MCHC: 31.23 ± 0.69 g/dL
  MCV: 59.58 ± 4.36 fL
  MPV: 9.35 ± 0.33 fL
  PLT: 862.8 ± 95.1 10^9/L
  PT: 19.76 ± 0.92 s
  RBC: 8.163 ± 0.679 10^12/L
  WBC: 9.315 ± 0.344 10^9/L
[7]
  ABBASO (basophils): 0.012 ± 0.008 10^9/L
  ABEOS (eosinophils): 0.086 ± 0.059 10^9/L
  ABLYMP (lymphocytes): 10.178 ± 2.676 10^9/L
  ABMONO (monocytes): 0.262 ± 0.043 10^9/L
  ABNEUT (neutrophils): 1.498 ± 0.573 10^9/L
  ABRETIC: 252.72 ± 25.77 10^9/L
  APTT: 17.86 ± 1.84 s
  HCT: 47.5 ± 1.89%
  HGB: 14.72 ± 0.59 g/dL
  MCH: 18.6 ± 0.49 pg
  MCHC: 30.98 ± 0.24 g/dL
  MCV: 60.06 ± 2.02 fL
  PLT: 878 ± 118.5 10^9/L
  PT: 19.88 ± 0.94 s
  RBC: 7.916 ± 0.383 10^12/L
  WBC: 12.12 ± 2.998 10^9/L
[8]
  ABBASO (basophils): 0.01 ± 0.01 10^9/L
  ABEOS (eosinophils): 0.11 ± 0.062 10^9/L
  ABLYMP (lymphocytes): 8.444 ± 1.168 10^9/L
  ABMONO (monocytes): 0.27 ± 0.06 10^9/L
  ABNEUT (neutrophils): 1.742 ± 0.58 10^9/L
  ABRETIC: 270.82 ± 25.29 10^9/L
  APTT: 17.34 ± 1.96 s
  HCT: 47.62 ± 1.59%
  HGB: 14.6 ± 0.55 g/dL
  MCH: 18.86 ± 0.15 pg
  MCV: 61.52 ± 0.65 fL
  MPV: 9.26 ± 0.24 fL
  PLT: 985.4 ± 65 10^9/L
  PT: 20.14 ± 0.95 s
  RBC: 7.742 ± 0.232 10^12/L
  WBC: 10.654 ± 1.291 10^9/L

From article PMC9363195, “Preclinical Pharmacokinetics, Biodistribution, and Acute Toxicity Evaluation of Caerin 1.9 Peptide in Sprague Dawley Rats” (Evidence-based Complementary and Alternative Medicine : eCAM, 2022)
